# Test results: PubChem BioAssay (NCI)
#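 Step 1: Grow cells in 96-well plates. Step 2: Expose to compound for 48 hours at 5 concentrations. Step 3: Interpolate endpoints linearly; if unreached, use highest concentration. Abbreviation: GI50, concentration required for 50% inhibition of growth. The concentration for full growth arrest is given as TGI.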
# Columns and labels:
# Test in all cases: DTP human tumour cell line panel, 48 h
# CAKI-1 renal = test system: CAKI-1 renal
# CCRF-CEM leukemia = test system: CCRF-CEM leukemia
# EKVX NSCLC = test system: EKVX NSCLC
# HCC-2998 colon = test system: HCC-2998 colon
# PC-3 prostate = test system: PC-3 prostate
# SN12C renal = test system: SN12C renal
# SW-620 colon = test system: SW-620 colon
# U251 CNS = test system: U251 CNS
SMILES,GI50 (CAKI-1 renal),TGI (CAKI-1 renal),GI50 (CCRF-CEM leukemia),TGI (CCRF-CEM leukemia),GI50 (EKVX NSCLC),TGI (EKVX NSCLC),GI50 (HCC-2998 colon),TGI (HCC-2998 colon),GI50 (PC-3 prostate),GI50 (SN12C renal),TGI (SN12C renal),GI50 (SW-620 colon),TGI (SW-620 colon),GI50 (U251 CNS),TGI (U251 CNS),TGI (PC-3 prostate)
COC(=O)c1cc(-c2ccc(OC)c(OC)c2)[nH]c1N/N=C/c1c(Cl)cccc1Cl,0.768 µM,7.1 µM,0.406 µM,> 100 µM,0.708 µM,19.5 µM,0.265 µM,1.43 µM,0.538 µM,0.969 µM,18.8 µM,0.443 µM,12.7 µM,0.671 µM,2.43 µM,–
Cc1[nH]c(-c2cc(N)ccc2Cl)c2c1C(=O)CCCC2,0.702 µM,17.9 µM,1.06 µM,> 100 µM,6.09 µM,> 100 µM,3.39 µM,16.5 µM,3.5 µM,5.01 µM,> 100 µM,12.1 µM,55.6 µM,5.75 µM,> 100 µM,> 100 µM
Nc1n[nH]c2ccc([C@@H]3Nc4cc5c(cc4[C@H]4C6CCC(C6)[C@@H]34)C(=O)NC5)cc12 (stereo partly drawn),0.498 µM,> 100 µM,0.323 µM,> 100 µM,0.734 µM,> 100 µM,0.362 µM,> 41.5 µM,0.471 µM,0.473 µM,> 100 µM,0.362 µM,> 100 µM,0.418 µM,> 100 µM,> 100 µM
Cc1[nH]nc(-c2ccon2)c1N=O,–,60.5 µM,–,–,–,31.3 µM,–,–,–,–,42 µM,–,49.1 µM,–,32.8 µM,70.3 µM
CC1C=CC(OC(=O)C(C)(O)CCC(O)(C(=O)OC2CC(O)C(C(C)C)CC2(C)O)C(C)C)(C(C)C)CC1 (stereo not drawn),0.594 µM,1.2 µM,0.244 µM,0.901 µM,0.618 µM,1.41 µM,2.7 µM,8.91 µM,0.676 µM,0.149 µM,0.602 µM,0.604 µM,1.41 µM,0.582 µM,1.32 µM,1.4 µM
C1CSCCSCCCSCCSCCCSCCSCCCSCCSC1,–,> 100 µM,–,> 100 µM,–,> 100 µM,–,> 100 µM,–,–,> 100 µM,–,> 100 µM,–,> 100 µM,> 100 µM
C=CCc1cc(Nc2c3ccc(Cl)cc3nc3ccc(OC)cc23)cc(CN(CC)CC)c1O,2.4 µM,11.1 µM,0.8 µM,4.26 µM,0.661 µM,11.1 µM,2.71 µM,16.6 µM,1.04 µM,2.03 µM,12.1 µM,1.97 µM,11.4 µM,0.802 µM,10.8 µM,4.73 µM
COc1cc(C(=O)c2cc(C)c3[nH]c4ccc(O)cc4c3c2C)cc(OC)c1OC,< 0.01 µM,> 47.6 µM,0.0254 µM,> 100 µM,0.0466 µM,> 100 µM,0.03 µM,> 37.9 µM,< 0.02 µM,0.0415 µM,> 100 µM,< 0.0129 µM,> 100 µM,0.0226 µM,> 100 µM,> 100 µM
O=Nc1c(-c2c(O)[nH]c3ncccc23)[nH]c2ccccc12,1.9 µM,> 100 µM,5.07 µM,> 100 µM,1.32 µM,> 100 µM,> 24.4 µM,> 100 µM,> 26.1 µM,5.86 µM,> 100 µM,11.3 µM,> 100 µM,> 100 µM,> 100 µM,> 100 µM
Cc1ccc(C2C3Cc4ccccc4C3=NN2c2ccc(S(=O)(=O)/N=c3\scc(-c4ccccc4)n3-c3ccccc3)cc2)cc1 (stereo not drawn),18.6 µM,44.7 µM,17.1 µM,44 µM,21.5 µM,65.7 µM,–,–,21.3 µM,16.8 µM,31.8 µM,15.7 µM,31.6 µM,18.7 µM,37.8 µM,53.2 µM
N/C(=N\OC(=O)c1ccccc1)C(Cc1ccccc1)C(=O)NOC(=O)c1ccccc1 (stereo not drawn),1.28 µM,2.97 µM,2.18 µM,6.07 µM,2.23 µM,6.52 µM,5.4 µM,19.7 µM,2.62 µM,3.39 µM,25.4 µM,3.02 µM,13.8 µM,1.36 µM,2.87 µM,7.2 µM
COc1cc2cc(Oc3ccc(NC(=O)c4ccc(Cl)c(Cl)c4)cc3)c(C)nc2cc1OC,5.96 µM,> 100 µM,4.44 µM,> 100 µM,6.8 µM,> 100 µM,> 100 µM,> 100 µM,4.77 µM,> 100 µM,> 100 µM,> 100 µM,> 100 µM,> 100 µM,> 100 µM,> 100 µM
CCOC(=O)c1cc2c(cc1Cl)SC(=Nc1ccccc1)N(S(=O)(=O)c1ccc(Br)s1)S2(=O)=O,17.5 µM,32.8 µM,4.51 µM,18.8 µM,15.5 µM,32.3 µM,16.7 µM,31.6 µM,14.5 µM,17.3 µM,33.9 µM,16.6 µM,34.3 µM,11.7 µM,25.8 µM,32.1 µM
CCC(=O)Nc1ccc(N2C(=O)/C(=C/c3ccc(OC)cc3)N=C2c2ccccc2)cc1,6.4 µM,21.7 µM,> 50 µM,> 50 µM,42.9 µM,> 50 µM,–,–,13.5 µM,5.46 µM,15.3 µM,1.38 µM,> 50 µM,1.66 µM,8.87 µM,> 50 µM
COc1cc(/C=C/c2ccc3c(Br)cc(Br)c(O)c3n2)ccc1O,0.553 µM,5.42 µM,0.359 µM,3.03 µM,1.42 µM,14.9 µM,–,–,1.26 µM,2 µM,17.9 µM,2.24 µM,13 µM,0.636 µM,10.9 µM,15.1 µM
CC(C)C[C@H](NC(=O)CCn1ccc2ccccc2c1=O)B(O)O,2.93 µM,27 µM,2.02 µM,25.4 µM,–,–,6.08 µM,21.3 µM,5.77 µM,11.2 µM,55.4 µM,3 µM,12 µM,4.23 µM,> 100 µM,> 100 µM
O=C(Nc1ccccc1OC(=O)c1ccccc1)c1ccccc1,5.84 µM,54.4 µM,5.87 µM,> 100 µM,7.45 µM,> 100 µM,30.1 µM,> 100 µM,6.11 µM,28.1 µM,> 100 µM,4.25 µM,> 100 µM,6.35 µM,> 100 µM,> 100 µM

SMILES,GI50 (CAKI-1 renal),TGI (CAKI-1 renal),GI50 (CCRF-CEM leukemia),TGI (CCRF-CEM leukemia),GI50 (EKVX NSCLC),TGI (EKVX NSCLC),GI50 (HCC-2998 colon),TGI (HCC-2998 colon),GI50 (PC-3 prostate),GI50 (SN12C renal),TGI (SN12C renal),GI50 (SW-620 colon),TGI (SW-620 colon),GI50 (U251 CNS),TGI (U251 CNS),TGI (PC-3 prostate)
COc1ccc(Nc2ccnc(N3CCN(c4ccnc5cc(Cl)ccc45)CC3)n2)cc1,0.576 µM,3.92 µM,1.74 µM,> 34.2 µM,–,–,2.73 µM,> 55.4 µM,0.705 µM,1.67 µM,> 100 µM,0.739 µM,> 73.1 µM,1.17 µM,11.5 µM,7.25 µM
Oc1cccc2c1NCCC2,2.24 µM,16.6 µM,0.219 µM,> 100 µM,1.78 µM,> 100 µM,3.67 µM,> 89.7 µM,0.119 µM,0.121 µM,> 76.2 µM,0.133 µM,> 100 µM,0.102 µM,> 100 µM,> 100 µM
O=C(NNS(=O)(=O)c1ccc(Cl)cc1Cl)c1cccnc1Nc1ccc(Cl)cc1,19.8 µM,58.7 µM,6.62 µM,> 100 µM,26.1 µM,> 100 µM,13.6 µM,29 µM,23.4 µM,31.4 µM,> 100 µM,28.4 µM,> 100 µM,34.4 µM,> 100 µM,80.4 µM
C[CH2][Hg][S]c1ccccc1C(=O)O,0.316 µM,1.47 µM,0.291 µM,2.74 µM,2.05 µM,5.39 µM,1.67 µM,3.08 µM,3.88 µM,1.31 µM,2.61 µM,0.838 µM,2.24 µM,1.56 µM,3.03 µM,17.7 µM
CN1CCc2nc3sc(C(N)=O)c(N)c3c(-c3cccs3)c2C1,2.82 µM,> 100 µM,3.77 µM,> 100 µM,3.54 µM,> 100 µM,3.54 µM,20.9 µM,4.58 µM,2.69 µM,> 100 µM,4.02 µM,> 100 µM,3.18 µM,> 100 µM,> 100 µM
Fc1cccc(F)c1C(Nc1nncs1)Nc1nncs1,–,> 100 µM,–,–,–,–,–,> 100 µM,–,–,> 100 µM,–,> 100 µM,–,> 100 µM,> 100 µM
CCc1c(C)nc2sc3c(N)ncnc3c2c1C,> 19.6 µM,> 25 µM,> 25 µM,> 25 µM,–,–,> 25 µM,> 25 µM,> 25 µM,> 25 µM,> 25 µM,> 25 µM,> 25 µM,> 25 µM,> 25 µM,> 25 µM
CC(=O)O[C@@H]1C[C@@]2(C)[C@@H]3CC=C4[C@@H](C[C@H](O)C(=O)C4(C)C)[C@]3(C)C(=O)C[C@]2(C)[C@H]1[C@@](C)(O)C(=O)/C=C/C(C)(C)OC(C)=O,–,0.397 µM,–,> 69.2 µM,–,26 µM,–,16.5 µM,–,–,> 44.8 µM,–,35.6 µM,–,10.5 µM,> 47 µM
COc1cc(-c2nn(-c3cccc(NC(=O)CCN4CCN(Cc5ccccc5)CC4)c3)cc2-c2ccncc2)ccc1Cl,–,–,0.691 µM,> 100 µM,1.6 µM,17.5 µM,1.68 µM,3.82 µM,0.709 µM,2.13 µM,20.3 µM,0.49 µM,1.93 µM,0.839 µM,2.76 µM,11.6 µM
N#CCCNc1nonc1-c1nc2ccccc2n1CC(=O)c1ccc(NC(=O)[C@@H](N)CCCCN)cc1,0.061 µM,> 100 µM,0.0368 µM,> 100 µM,–,–,0.0308 µM,> 92.2 µM,0.046 µM,0.0498 µM,> 100 µM,0.0443 µM,> 100 µM,0.0445 µM,> 100 µM,> 100 µM
COc1cc2ncc3c(nc4sccn43)c2cc1OC,2.38 µM,21.2 µM,46.4 µM,> 100 µM,20.7 µM,> 100 µM,–,–,47.9 µM,22.5 µM,89.3 µM,41.9 µM,> 100 µM,16.5 µM,39.3 µM,> 100 µM
Fc1ccc(/C=N/n2c(-c3ccc(F)c(Cl)c3)n[nH]c2=S)cc1,47.8 µM,> 100 µM,32.2 µM,96.6 µM,32.3 µM,> 100 µM,34.8 µM,> 100 µM,27.3 µM,–,–,30.2 µM,> 100 µM,–,–,> 100 µM
O=c1c2cc(F)ccc2sc2c(NCCCNCCO)nc3ccccc3c12,1.61 µM,2.97 µM,2.02 µM,4.76 µM,1.67 µM,3.47 µM,1.69 µM,3.34 µM,1.7 µM,1.67 µM,3.17 µM,1.62 µM,3.14 µM,–,–,3.29 µM
COc1ccc(/C=C(\C)[N+](=O)[O-])cc1OC,1.88 µM,3.89 µM,–,–,–,–,1.82 µM,3.29 µM,2.75 µM,2.72 µM,8.23 µM,1.78 µM,3.8 µM,4.39 µM,15.9 µM,7.07 µM
Cn1ccnc1Oc1ccc(Cl)cc1,–,–,–,–,–,49.1 µM,–,14.9 µM,–,–,26.4 µM,–,26.4 µM,–,46.7 µM,34.2 µM
CC(CO)(Nc1ccc([N+](=O)[O-])cc1[N+](=O)[O-])C(=O)O (stereo not drawn),–,89.8 µM,–,–,–,71.3 µM,–,43.6 µM,–,–,39.4 µM,–,33.4 µM,–,49.2 µM,> 100 µM
CC1c2ccccc2CCN1c1ccc(CO)c(Cl)c1 (stereo not drawn),3.46 µM,50.3 µM,30.9 µM,> 100 µM,–,–,2.95 µM,17.6 µM,19.6 µM,15.3 µM,> 57 µM,0.203 µM,> 100 µM,0.318 µM,> 46.1 µM,> 83.5 µM
